Measurements from the C3SDB collision cross section collection.
Where “and” joins values, the source holds several entries; their conditions need not be identical. Equal entries are not always repeated.

Settings: instrument: DT, single field, calibrated with Agilent tune mix (Agilent)

| Compound | collision cross section (N2) ([M+H]+) | collision cross section (N2) ([M-H]-) | other results |
| --- | --- | --- | --- |
| O=C(CO)[C@H](O)[C@H](O)COP(=O)(O)O [D-Ribulose 5-phosphate] | – | – | collision cross section (N2) ([M+Na]+): 148.8 Å² |
| Nc1[nH]c(=O)nc2nc[nH]c12 [2-Hydroxyadenine] | 127 Å² | 121.04 Å² | – |
| CCCCCCCC(=O)O [Caprylic acid] | – | 139.46 Å² | – |
| Nc1c(O)cccc1C(=O)C[C@H](N)C(=O)O [3-Hydroxy-L-kynurenine] | – | – | collision cross section (N2) ([M+H-H2O]+): 137.5 Å² |
| O=P(O)(O)OC[C@H]1OC(O)[C@@H](O)[C@@H](O)[C@@H]1O (stereo not given in full) [Mannose-6-phosphate] | – | – | collision cross section (N2) ([M+Na]+): 155.8 Å² |
| NCCP(=O)(O)O [Ciliatine] | 128.7 Å² | 118.25 Å² | – |
| NCCC(=O)N[C@@H](Cc1cnc[nH]1)C(=O)O [L-Carnosine] | 151 Å² | 149.72 Å² | – |
| CN(C)CCc1ccc(O)cc1 [Hordenine] | 137.8 Å² | 143.21 Å² | – |
| O=C(O)CC(O)(CC(=O)O)C(=O)O [Citrate] | – | – | collision cross section (N2) ([M+Na]+): 142.4 Å² |
| NCCc1ccc(O)cc1 [Tyramine] | – | 129.74 Å² | – |
| O=C(O)C(=O)CC1(C(=O)O)C=CC(O)C=C1 (stereo not given) [Prephenate] | – | – | collision cross section (N2) ([M+Na]+): 155 Å² |
| CC(C)=CCC/C(C)=C/CC/C(C)=C/CC/C=C(\C)CC/C=C(\C)CCC=C(C)C [Squalene] | 210.9 Å² | – | – |
| CC(O)CCCC(=O)O (stereo not given) [5-Hydroxyhexanoic acid] | – | 125.8 Å² | – |
| O=C(O)CC[C@H](O)C(=O)O [(S)-2-Hydroxyglutarate] | – | 118.99 Å² and 119.14 Å² | – |
| C=C(C)CCOP(=O)(O)OP(=O)(O)O [Isopentenyl pyrophosphate] | – | 141.71 Å² | – |
| CC(C)=CCC/C(C)=C/COP(=O)(O)OP(=O)(O)O [Geranyl diphosphate] | – | – | collision cross section (N2) ([M-H2O-H]-): 161.5 Å² |
| C[n+]1cccc(C(N)=O)c1 [1-Methylnicotinamide] | – | – | collision cross section (N2) ([M]+): 126.4 Å² |
| N[C@H]1C(O)O[C@H](COP(=O)(O)O)[C@@H](O)[C@@H]1O (stereo partly drawn) [D-glucosamine 6-phosphate] | – | – | collision cross section (N2) ([M+Na]+): 156.6 Å² |
| N[C@@H](CCC(=O)N[C@@H](Cc1ccccc1)C(=O)O)C(=O)O [gamma-Glutamylphenylalanine] | 168.2 Å² | – | – |
| Nc1ccn(C2O[C@H](CO)[C@H]3OP(=O)(O)O[C@@H]23)c(=O)n1 (stereo not given in full) [Cytidine 2',3'-cyclic phosphate] | 162.3 Å² | – | collision cross section (N2) ([M+Na-2H]-): 161.98 Å² |
| O=C(O)CCCCCCCCC(=O)O [Sebacic acid] | – | 141.9 Å² | – |
| Nc1ncnc2c1ncn2[C@@H]1O[C@H](COP(=O)(O)OP(=O)(O)O[C@H]2O[C@H](CO)[C@@H](O)[C@H](O)[C@H]2O)[C@@H](O)[C@H]1O [ADP-glucose] | 214.5 Å² | – | – |
| Cc1cn([C@H]2C[C@H](O)[C@@H](COP(=O)(O)O)O2)c(=O)[nH]c1=O [Deoxythymidine 5'-phosphate] | – | – | collision cross section (N2) ([M+Na]+): 173.1 Å² |
| O=c1ccn([C@@H]2O[C@H](COP(=O)(O)OP(=O)(O)O)[C@@H](O)[C@H]2O)c(=O)[nH]1 [Uridine 5'-diphosphate] | 176.5 Å² | – | – |
| CC(=O)NCCc1c[nH]c2ccc(O)cc12 [N-Acetylserotonin] | 149.8 Å² | 148.65 Å² | – |
| NC(=O)CCCCC1CCSS1 (stereo not given) [Lipoamide] | – | – | collision cross section (N2) ([M+Na]+): 150.5 Å² |
| C[C@]12CCC(=O)C[C@@H]1CC[C@@H]1[C@@H]2CC[C@]2(C)C(=O)CC[C@@H]12 [5alpha-Androstane-3,17-dione] | 180.6 Å² | 174.32 Å² | – |
| Nc1ncnc2c1ncn2[C@@H]1O[C@H](COP(=O)(O)OP(=O)(O)OC[C@H]2O[C@@H]([n+]3cccc(C(=O)O)c3)[C@H](O)[C@@H]2O)[C@@H](O)[C@H]1O [Nicotinic acid adenine dinucleotide] | – | – | collision cross section (N2) ([M+2Na-3H]-): 238.49 Å² |

The next lines start with results.

| collision cross section (N2) ([M+H]+) | collision cross section (N2) ([M-H]-) | Compound | other results |
| --- | --- | --- | --- |
| 164.9 Å² | – | N[C@@H](CC(=O)O)C(=O)N[C@@H](Cc1ccccc1)C(=O)O [L-Aspartyl-L-phenylalanine] | collision cross section (N2) ([M+Na-2H]-): 162.34 Å² |
| – | 137.38 Å² | O=C(O)CCCCCCCC(=O)O [Azelaic acid] | – |
| 183.4 Å² | 183.75 Å² | CC(=O)[C@@]1(O)CC[C@H]2[C@@H]3CCC4=CC(=O)CC[C@]4(C)[C@H]3CC[C@@]21C [17alpha-Hydroxyprogesterone] | – |
| – | 134.65 Å² | O=C(O)CNC(=O)c1ccco1 [2-Furoylglycine] | – |
| 134.1 Å² | 134.37 Å² | Cn1cncc1C[C@H](N)C(=O)O [3-Methylhistidine] | – |
| – | 126.06 Å² | CC(C)C[C@H](O)C(=O)O [Hydroxyisocaproic acid] | – |
| 136.4 Å² | 134.59 Å² | NCC(=O)N1CCCC1C(=O)O (stereo not given) [Glycylproline] | – |
| 159.8 Å² | – | N[C@@H](CCCCN[C@@H](CCC(=O)O)C(=O)O)C(=O)O [L-Saccharopine] | collision cross section (N2) ([M+2Na-3H]-): 163.17 Å² |
| 147 Å² | 139.51 Å² | N[C@@H](CCSC[C@H](N)C(=O)O)C(=O)O [L-Cystathionine] | – |
| 157.1 Å² | 150.31 Å² | Nc1nc(=O)c2nc([C@H](O)[C@H](O)CO)cnc2[nH]1 [D-Neopterin] | – |
| 186.8 Å² | – | N[C@@H](CCCCNC(=O)CCCC[C@@H]1SC[C@@H]2NC(=O)N[C@@H]21)C(=O)O [Biocytin] | collision cross section (N2) ([M+Na-2H]-): 189.78 Å² |
| 130.8 Å² | 128.75 Å² | Cn1cnc2[nH]c(=O)[nH]c(=O)c21 [7-Methylxanthine] | – |
| – | 248.67 Å² | CCCCCCCCCCCCC/C=C/[C@@H](O)[C@H](CO)NC(=O)CCCCCCCCCCCCCCCCC [N-Stearoylsphingosine] | collision cross section (N2) ([M+Na]+): 256.4 Å² |
| – | 201.51 Å² | C[C@H](CCC(=O)O)[C@H]1CC[C@H]2[C@@H]3[C@H](O)C[C@@H]4C[C@H](O)CC[C@]4(C)[C@H]3CC[C@]12C [Chenodeoxycholate] | – |
| – | 145.23 Å² | O=c1[nH]cc([C@@H]2O[C@H](CO)[C@@H](O)[C@H]2O)c(=O)[nH]1 [Pseudouridine] | collision cross section (N2) ([M+Na]+): 159 Å² |
| – | 188.5 Å² | CCCCCCCC/C=C\CCCCCCCCCCCC(=O)O [Erucic acid] | – |
| – | 138.18 Å² | COc1cc(/C=C/CO)ccc1O [Coniferol] | collision cross section (N2) ([M+H-H2O]+): 128.6 Å² |
| 171.6 Å² | 167.62 Å² | NC(=O)c1ncn([C@@H]2O[C@H](COP(=O)(O)O)[C@@H](O)[C@H]2O)c1N [5'-Phosphoribosyl-5-amino-4-imidazolecarboxamide] | – |
| – | 136.83 Å² | CC(=O)NC(CCC(N)=O)C(=O)O [alpha-N-Acetyl-L-glutamine] | collision cross section (N2) ([M+Na]+): 144.2 Å² |
| – | 146.81 Å² | O=C(O)CCCCCCC(=O)NCC(=O)O [Suberylglycine] | collision cross section (N2) ([M+Na]+): 153.7 Å² |
